Assay results from US12421226B2, “Heteroaryl compounds as necrosis inhibitors, composition and method using the same” (Accro Bioscience (HK), priority 2019, dated 2025).
Where a name gives a salt, the structure may show the parent alone.

Test system: HT29 cells
Assay: Necroptosis inhibition in HT29 cell assay (TNF-α/Smac mimetic/z-VAD induced, cell viability)
Assay type: cell-based
Conditions: Homo sapiens, HT-29, 1 h pre-treatment with compound, then TNF-α 40 ng/mL + Smac mimetic 100 nM + z-VAD 20 μM for 48 hours
Description: 1. Compounds Tested for Necroptosis Inhibition Activities in HT29 Cell Assay
(§1) For this assay, HT29 cells were added to 96-well plates and then were pre-treated with 10 μM of the test compound for one hour. Then the cells were treated with tumor necrosis factor alpha (TNF-α, 40 ng/mL), Smacmimetic (cIAP inhibitor) (100 nM) and z-VAD (capase inhibitor, from calbiochem) (20 μM) for 48 hours, and the viability of cells was quantified. DMSO pretreatment group was used as negative controls, Nec-1 (known necroptosis inhibitor, from Biomol) pretreatment group was used as positive controls.

Compared with `CCOC(=O)Nc1nc2ccc(-c3cnc4scc(C(=O)NC5CCCCC5)c4c3)cc2s1` [Compound C39, ethyl N-[6-[3-(cyclohexylcarbamoyl)thieno[2,3-b]pyridin-5-yl]-1,3-benzothiazol-2-yl]carbamate], `CC(=O)Nc1nc2ccc(-c3cnc4scc(C(=O)NC5CCCCC5)c4c3)cc2s1` [Compound C19, 5-(2-acetamido-1,3-benzothiazol-6-yl)-N-cyclohexyl-thieno[2,3-b]pyridine-3-carboxamide] is 4.4-fold lower in IC50: 48 nM for the first, 11 nM for the second. The second is the more potent here.

Compared with `CNCC(C)OC(=O)n1ccc2ncc(-c3ccc4nc(NC(=O)C5CC5)sc4c3)cc21` (centres unmarked) [Compound C36, [1-methyl-2-(methylamino)ethyl] 6-[2-(cyclopropanecarbonylamino)-1,3-benzothiazol-6-yl]pyrrolo[3,2-b]pyridine-1-carboxylate, hydrochloride salt], `CCC(CC)OC(=O)n1ccc2ncc(-c3ccc4nc(NC(=O)C5CC5)sc4c3)cc21` [Compound C24, 1-ethylpropyl 6-[2-(cyclopropanecarbonylamino)-1,3-benzothiazol-6-yl]pyrrolo[3,2-b]pyridine-1-carboxylate] is 480-fold lower in IC50: 16000 nM for the first, 33 nM for the second.

First: O=C(Nc1nc2ccc(-c3cnc4ccn(C(=O)OC5CCCCC5)c4c3)cc2s1)C1CC1 [Compound C15]
Second: CC(=O)Nc1nc2ccc(-c3cnc4ccn(C(=O)OC5CCCCC5)c4c3)cc2s1 [Compound C1, cyclohexyl 6-(2-acetamido-1,3-benzothiazol-6-yl)pyrrolo[3,2-b]pyridine-1-carboxylate]
The IC50 of the first is 6.1-fold lower: 7 nM for the first, 43 nM for the second.

First: CCC(=O)Nc1nc2ccc(-c3cnc4ccn(C(=O)OC5CCCCC5)c4c3)cc2s1 [Compound C26, cyclohexyl 6-[2-(propanoylamino)-1,3-benzothiazol-6-yl]pyrrolo[3,2-b]pyridine-1-carboxylate]
Second: CCOC(=O)Nc1nc2ccc(-c3cnc4ccn(C(=O)OC5CCCCC5)c4c3)cc2s1 [Compound C34, cyclohexyl 6-[2-(ethoxycarbonylamino)-1,3-benzothiazol-6-yl]pyrrolo[3,2-b]pyridine-1-carboxylate]
The IC50 of the first is 3-fold lower: 50 nM for the first, 150 nM for the second.

Going from `O=C(NC1CCCCC1)c1nsc2ncc(-c3ccc4nc(NC(=O)C5CC5)sc4c3)cc12` [Compound C23, N-cyclohexyl-5-[2-(cyclopropanecarbonylamino)-1,3-benzothiazol-6-yl]isothiazolo[5,4-b]pyridine-3-carboxamide] to `CC(=O)Nc1nc2ccc(-c3cnc4snc(C(=O)NC5CCCCC5)c4c3)cc2s1` [Compound C22, 5-(2-acetamido-1,3-benzothiazol-6-yl)-N-cyclohexyl-isothiazolo[5,4-b]pyridine-3-carboxamide], the IC50 rises from 5.3 nM to 35 nM (6.6-fold).

`O=C(Nc1nc2ccc(-c3cnc4ccn(C(=O)CC5CCCCC5)c4c3)cc2s1)C1CC1` [Compound C25, N-[6-[1-(2-cyclohexylacetyl)pyrrolo[3,2-b]pyridin-6-yl]-1,3-benzothiazol-2-yl]cyclopropanecarboxamide] and `O=C(Nc1nc2ccc(-c3cnc4ccn(C(=O)NC5CCOCC5)c4c3)cc2s1)C1CC1` [Compound C21, 6-[2-(cyclopropanecarbonylamino)-1,3-benzothiazol-6-yl]-N-tetrahydropyran-4-yl-pyrrolo[3,2-b]pyridine-1-carboxamide] are within 1.5-fold of each other in IC50: 29 nM for the first, 22 nM for the second.

First: CCOC(=O)Nc1nc2ccc(-c3cnc4snc(C(=O)NC5CCCCC5)c4c3)cc2s1 [Compound C29, ethyl N-[6-[3-(cyclohexylcarbamoyl)isothiazolo[5,4-b]pyridin-5-yl]-1,3-benzothiazol-2-yl]carbamate]
Second: CNC(=O)Nc1nc2ccc(-c3cnc4snc(C(=O)NC5CCCCC5)c4c3)cc2s1 [Compound C27, N-cyclohexyl-5-[2-(methylcarbamoylamino)-1,3-benzothiazol-6-yl]isothiazolo[5,4-b]pyridine-3-carboxamide]
The IC50 of the first is 11-fold lower: 3.1 nM for the first, 33 nM for the second. The first is the more potent here.

Going from `CNC(=O)Nc1nc2ccc(-c3cnc4scc(C(=O)NC5CCCCC5)c4c3)cc2s1` [Compound C20, N-cyclohexyl-5-[2-(methylcarbamoylamino)-1,3-benzothiazol-6-yl]thieno[2,3-b]pyridine-3-carboxamide] to `O=C(NC1CCCCC1)c1csc2ncc(-c3ccc4nc(NC(=O)C5CC5)sc4c3)cc12` [Compound C18, N-cyclohexyl-5-[2-(cyclopropanecarbonylamino)-1,3-benzothiazol-6-yl]thieno[2,3-b]pyridine-3-carboxamide], the IC50 falls from 1.6 nM to 1 nM (1.6-fold). The second is the more potent here.

First: CNCC(C)NC(=O)c1nsc2ncc(-c3ccc4nc(NC(=O)C5CC5)sc4c3)cc12 (centres unmarked) [Compound C32, 5-[2-(cyclopropanecarbonylamino)-1,3-benzothiazol-6-yl]-N-[1-methyl-2-(methylamino)ethyl]isothiazolo[5,4-b]pyridine-3-carboxamide]
Second: CCC(CC)NC(=O)c1nsc2ncc(-c3ccc4nc(NC(=O)C5CC5)sc4c3)cc12 [Compound C31, 5-[2-(cyclopropanecarbonylamino)-1,3-benzothiazol-6-yl]-N-(1-ethylpropyl)isothiazolo[5,4-b]pyridine-3-carboxamide]
The IC50 of the first is 130-fold higher: 1400 nM for the first, 11 nM for the second.

First: O=C(Nc1nc2ccc(-c3cnc4cnn(C(=O)OC5CCOCC5)c4c3)cc2s1)C1CC1 [Compound C11, tetrahydropyran-4-yl 6-[2-(cyclopropanecarbonylamino)-1,3-benzothiazol-6-yl]pyrazolo[4,3-b]pyridine-1-carboxylate]
Second: CNC(=O)Nc1nc2ccc(-c3cnc4ccn(C(=O)OC5CCOCC5)c4c3)cc2s1 [Compound C7, tetrahydropyran-4-yl 6-[2-(methylcarbamoylamino)-1,3-benzothiazol-6-yl]pyrrolo[3,2-b]pyridine-1-carboxylate]
The IC50 of the first is 130-fold higher: 4100 nM for the first, 32 nM for the second.

Compared with `O=C(NC1CCOCC1)c1cccc2ncc(-c3ccc4nc(NC(=O)C5CC5)sc4c3)cc12` [Compound C13, 3-[2-(cyclopropanecarbonylamino)-1,3-benzothiazol-6-yl]-N-tetrahydropyran-4-yl-quinoline-5-carboxamide], `O=C(NC1CCOCC1)c1c[nH]c2ncc(-c3ccc4nc(NC(=O)C5CC5)sc4c3)cc12` [Compound C9, 5-[2-(cyclopropanecarbonylamino)-1,3-benzothiazol-6-yl]-N-tetrahydropyran-4-yl-1H-pyrrolo[2,3-b]pyridine-3-carboxamide] is 2.5-fold lower in IC50: 13000 nM for the first, 5200 nM for the second.

First: O=C(NC1CCOCC1)c1nsc2ncc(-c3ccc4nc(NC(=O)C5CC5)cn4c3)cc12 [Compound C35, 5-[2-(cyclopropanecarbonylamino)imidazo[1,2-a]pyridin-6-yl]-N-tetrahydropyran-4-yl-isothiazolo[5,4-b]pyridine-3-carboxamide]
Second: O=C(NC1CCOCC1)c1csc2ncc(-c3ccc4nc(NC(=O)C5CC5)cn4c3)cc12 [Compound C40, 5-[2-(cyclopropanecarbonylamino)imidazo[1,2-a]pyridin-6-yl]-N-tetrahydropyran-4-yl-thieno[2,3-b]pyridine-3-carboxamide]
The IC50 of the first is 2.7-fold higher: 160 nM for the first, 60 nM for the second.

Compared with `CNCC(C)NC(=O)c1csc2ncc(-c3ccc4nc(NC(=O)C5CC5)sc4c3)cc12` (centres unmarked) [Compound C28, 5-[2-(cyclopropanecarbonylamino)-1,3-benzothiazol-6-yl]-N-[1-methyl-2-(methylamino)ethyl]thieno[2,3-b]pyridine-3-carboxamide], `CCC(CC)NC(=O)c1csc2ncc(-c3ccc4nc(NC(=O)C5CC5)sc4c3)cc12` [Compound C37, 5-[2-(cyclopropanecarbonylamino)-1,3-benzothiazol-6-yl]-N-(1-ethylpropyl)thieno[2,3-b]pyridine-3-carboxamide] is 120-fold lower in IC50: 380 nM for the first, 3.2 nM for the second.

Going from `CC(=O)Nc1nc2ccc(-c3cnc4ncn(C(=O)OC5CCCCC5)c4c3)cc2s1` [Compound C2, cyclohexyl 6-(2-acetamido-1,3-benzothiazol-6-yl)imidazo[4,5-b]pyridine-1-carboxylate] to `CNC(=O)Nc1nc2ccc(-c3cnc4ccn(C(=O)OC5CCCCC5)c4c3)cc2s1` [Compound C16, cyclohexyl 6-[2-(methylcarbamoylamino)-1,3-benzothiazol-6-yl]pyrrolo[3,2-b]pyridine-1-carboxylate], the IC50 falls from 11000 nM to 25 nM (440-fold). The second is the more potent here.

Compared with `O=C(NC1CCCCC1)c1csc2ncc(-c3ccc4nc(NC(=O)C5CC5)cn4c3)cc12` [Compound C41, N-cyclohexyl-5-[2-(cyclopropanecarbonylamino)imidazo[1,2-a]pyridin-6-yl]thieno[2,3-b]pyridine-3-carboxamide], `O=C(Nc1cn2cc(-c3cnc4ccn(C(=O)OC5CCCCC5)c4c3)ccc2n1)C1CC1` [Compound C17] is 8-fold higher in IC50: 2 nM for the first, 16 nM for the second.

Compared with `O=C(NC1CCC(F)(F)CC1)c1csc2ncc(-c3ccc4nc(NC(=O)C5CC5)sc4c3)cc12` [Compound C38, 5-[2-(cyclopropanecarbonylamino)-1,3-benzothiazol-6-yl]-N-(4,4-difluorocyclohexyl)thieno[2,3-b]pyridine-3-carboxamide], `O=C(NC1CCOCC1)c1n[nH]c2ncc(-c3ccc4nc(NC(=O)C5CC5)sc4c3)cc12` [Compound C10, 5-[2-(cyclopropanecarbonylamino)-1,3-benzothiazol-6-yl]-N-tetrahydropyran-4-yl-1H-pyrazolo[3,4-b]pyridine-3-carboxamide] is 6700-fold higher in IC50: 1.8 nM for the first, 12000 nM for the second. The first is the more potent here.

Test system: L929 mouse skin fibroblast cells
Assay: Necroptosis inhibition in L929 cell assay (TNF-α/z-VAD induced, cell viability by ATP levels)
Assay type: cell-based
Conditions: Mus musculus, 1 h pre-treatment with compound, then TNF-α 40 ng/mL + z-VAD 20 μM for 48 hours
Description: 2. Compounds Tested for Necroptosis Inhibition Activities in L929 Cell Assay
as §1, with “Mouse L929 mouse skin fibroblast” for “For this assay, HT29”, “TNF-α (40 ng/mL, lab-made)” for “tumor necrosis factor alpha (TNF-α, 40 ng/mL), Smacmimetic (cIAP inhibitor) (100 nM)”, “quantified by detecting adenosine triphosphate (ATP) levels.” for “quantified.”

Compared with `O=C(NC1CCCCC1)c1nsc2ncc(-c3ccc4nc(NC(=O)C5CC5)sc4c3)cc12` [Compound C23, N-cyclohexyl-5-[2-(cyclopropanecarbonylamino)-1,3-benzothiazol-6-yl]isothiazolo[5,4-b]pyridine-3-carboxamide], `O=C(NC1CCCCC1)c1csc2ncc(-c3ccc4nc(NC(=O)C5CC5)sc4c3)cc12` [Compound C18, N-cyclohexyl-5-[2-(cyclopropanecarbonylamino)-1,3-benzothiazol-6-yl]thieno[2,3-b]pyridine-3-carboxamide] is 5.7-fold lower in IC50: 1.7 nM for the first, 0.3 nM for the second.

In the case of `CNC(=O)Nc1nc2ccc(-c3cnc4scc(C(=O)NC5CCCCC5)c4c3)cc2s1` [Compound C20, N-cyclohexyl-5-[2-(methylcarbamoylamino)-1,3-benzothiazol-6-yl]thieno[2,3-b]pyridine-3-carboxamide], the IC50 is reported as 0.6 nM.
